This note sets out measurements from patent US10081624B2, “Heterocyclic compound” (Takeda Pharmaceutical Company Limited, priority 2014, dated 2018).

The target of one assay is T1, HDAC1 enzyme (Homo sapiens, UniProt Q13547).
T1 construct: prepared by transducing full length HDAC1 and HDAC6 genes into Sf-9 insect cells; GST; purchased SignalChem; host or cells: Sf-9 insect cells
The assay can be described thus: HDAC1 enzyme inhibitory assay (HDAC-Glo I/II Assay kit). It is filed as biochemical. Conditions: 1 μM test compound; read-out: HDAC1 inhibitory rate (%) (1 μM). In short, it runs like this: (§1)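 Relative activity was calculated from luminescence, with wells lacking enzyme defined as 100% inhibition. The enzymes were full-length HDAC1 or HDAC6 from Sf-9 cells, preincubated with test compound for 60 min before a 20-min substrate-developer reaction at room temperature.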

The next assay concerns the target T2, HDAC6 enzyme (Homo sapiens, UniProt Q9UBN7).
T2 construct: prepared by transducing full length HDAC1 and HDAC6 genes into Sf-9 insect cells; GST; purchased SignalChem; host or cells: Sf-9 insect cells
T2 sequence (Q9UBN7 1-1215): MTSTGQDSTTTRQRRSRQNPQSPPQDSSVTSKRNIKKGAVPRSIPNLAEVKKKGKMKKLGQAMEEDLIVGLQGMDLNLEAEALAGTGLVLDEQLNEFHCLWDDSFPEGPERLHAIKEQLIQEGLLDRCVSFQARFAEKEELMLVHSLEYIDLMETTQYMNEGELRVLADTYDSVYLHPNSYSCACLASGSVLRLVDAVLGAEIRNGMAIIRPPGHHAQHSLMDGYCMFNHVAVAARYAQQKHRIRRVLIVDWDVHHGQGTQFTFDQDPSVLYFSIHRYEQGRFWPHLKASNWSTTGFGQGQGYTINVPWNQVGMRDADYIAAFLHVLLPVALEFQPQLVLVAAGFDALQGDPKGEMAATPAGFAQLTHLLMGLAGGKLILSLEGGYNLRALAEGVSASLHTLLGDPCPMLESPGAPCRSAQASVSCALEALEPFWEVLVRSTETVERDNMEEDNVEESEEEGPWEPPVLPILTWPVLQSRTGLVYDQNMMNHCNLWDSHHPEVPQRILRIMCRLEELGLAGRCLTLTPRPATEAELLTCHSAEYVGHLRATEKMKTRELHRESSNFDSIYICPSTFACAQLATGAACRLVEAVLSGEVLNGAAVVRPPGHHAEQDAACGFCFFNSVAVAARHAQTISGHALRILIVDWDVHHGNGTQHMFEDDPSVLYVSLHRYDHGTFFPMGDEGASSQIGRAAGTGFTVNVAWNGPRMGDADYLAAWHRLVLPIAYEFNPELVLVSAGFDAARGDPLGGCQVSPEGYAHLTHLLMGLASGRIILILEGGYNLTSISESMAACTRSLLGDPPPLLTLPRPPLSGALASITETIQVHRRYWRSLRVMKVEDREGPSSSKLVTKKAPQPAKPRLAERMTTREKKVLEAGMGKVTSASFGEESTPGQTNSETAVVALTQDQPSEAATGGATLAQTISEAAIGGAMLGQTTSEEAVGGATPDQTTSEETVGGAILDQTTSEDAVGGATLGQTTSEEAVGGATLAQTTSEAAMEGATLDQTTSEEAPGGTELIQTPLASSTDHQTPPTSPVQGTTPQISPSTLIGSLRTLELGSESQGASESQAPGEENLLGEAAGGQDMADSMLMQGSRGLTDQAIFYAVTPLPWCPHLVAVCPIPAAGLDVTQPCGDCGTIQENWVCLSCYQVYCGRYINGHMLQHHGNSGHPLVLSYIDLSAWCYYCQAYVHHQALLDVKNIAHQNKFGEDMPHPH
The assay can be described thus: HDAC6 enzyme inhibitory assay (HDAC-Glo I/II Assay kit). It is filed as biochemical. The settings on record: 1 μM test compound; read-out: HDAC6 inhibitory rate (%) (1 μM). A digest of the protocol: as §1

T1 sequence (Q13547 whole entry): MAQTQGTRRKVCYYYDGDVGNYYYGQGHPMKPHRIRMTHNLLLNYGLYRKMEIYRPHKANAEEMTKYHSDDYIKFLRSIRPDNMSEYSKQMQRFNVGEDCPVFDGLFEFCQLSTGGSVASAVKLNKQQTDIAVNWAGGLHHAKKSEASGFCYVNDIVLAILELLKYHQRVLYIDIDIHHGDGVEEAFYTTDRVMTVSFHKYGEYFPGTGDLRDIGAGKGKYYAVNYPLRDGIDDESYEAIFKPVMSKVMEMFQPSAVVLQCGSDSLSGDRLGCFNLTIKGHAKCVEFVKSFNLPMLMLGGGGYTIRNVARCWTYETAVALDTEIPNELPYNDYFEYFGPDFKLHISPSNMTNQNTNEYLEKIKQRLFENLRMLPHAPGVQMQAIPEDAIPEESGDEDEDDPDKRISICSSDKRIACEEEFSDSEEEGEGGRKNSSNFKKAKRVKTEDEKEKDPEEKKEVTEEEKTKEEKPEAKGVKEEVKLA

As to `O=C(NC[C@@H]1COCCN1C(=O)C(F)(F)c1ccccc1)c1ccc(-c2noc(C(F)(F)F)n2)s1` [Example 265, N-(((3R)-4-(difluoro(phenyl)acetyl)morpholin-3-yl)methyl)-5-(5-(trifluoromethyl)-1,2,4-oxadiazol-3-yl)thiophene-2-carboxamide], the inhibition at 1 µM is 76% on HDAC1 enzyme and 99% at HDAC6 enzyme.

On to `O=C(NC[C@@H]1COCCN1C(=O)C1CCCCC1)c1ccc(-c2noc(C(F)(F)F)n2)s1` [Example 266, N-(((3R)-4-(cyclohexylcarbonyl)morpholin-3-yl)methyl)-5-(5-(trifluoromethyl)-1,2,4-oxadiazol-3-yl)thiophene-2-carboxamide], for which the figures for the inhibition at 1 µM at HDAC1 enzyme and at HDAC6 enzyme were 30% and 98%, respectively.

As for `COC(=O)c1cccc(C(=O)N2CCOC[C@@H]2CNC(=O)c2ccc(-c3noc(C(F)(F)F)n3)cc2)c1` [Example 268, methyl 3-(((3S)-3-(((4-(5-(trifluoromethyl)-1,2,4-oxadiazol-3-yl)benzoyl)amino)methyl)morpholin-4-yl)carbonyl)benzoate], the inhibition at 1 µM was determined as 15% on HDAC1 enzyme and 96% on HDAC6 enzyme.

Take `O=C(O)c1cccc(C(=O)N2CCOC[C@@H]2CNC(=O)c2ccc(-c3noc(C(F)(F)F)n3)cc2)c1` [Example 269, 3-(((3S)-3-(((4-(5-(trifluoromethyl)-1,2,4-oxadiazol-3-yl)benzoyl)amino)methyl)morpholin-4-yl)carbonyl)benzoic acid]: the inhibition at 1 µM turned out to be 7% on HDAC1 enzyme and 89% at HDAC6 enzyme.

Regarding `CN1CCC[C@H]1C(=O)N1CCOC[C@@H]1CNC(=O)c1ccc(-c2noc(C(F)(F)F)n2)cc1` [Example 270, N-(((3S)-4-(1-methyl-L-prolyl)morpholin-3-yl)methyl)-4-(5-(trifluoromethyl)-1,2,4-oxadiazol-3-yl)benzamide], the inhibition at 1 µM is -1% at HDAC1 enzyme and 59% on HDAC6 enzyme.

Take `O=C(NCCO)c1cccc(C(=O)N2CCOC[C@@H]2CNC(=O)c2ccc(-c3noc(C(F)(F)F)n3)cc2)c1` [Example 271, N-(2-hydroxyethyl)-3-(((3S)-3-(((4-(5-(trifluoromethyl)-1,2,4-oxadiazol-3-yl)benzoyl)amino)methyl)morpholin-4-yl)carbonyl)benzamide]: the inhibition at 1 µM came to 7% on HDAC1 enzyme and 94% at HDAC6 enzyme.

For `COC[C@H]1CCCN1C(=O)N1CCOC[C@@H]1CNC(=O)c1ccc(-c2noc(C(F)(F)F)n2)cc1` [Example 272, N-(((3S)-4-(((2R)-2-(methoxymethyl)pyrrolidin-1-yl)carbonyl)morpholin-3-yl)methyl)-4-(5-(trifluoromethyl)-1,2,4-oxadiazol-3-yl)benzamide], the inhibition at 1 µM was determined as 5% on HDAC1 enzyme and 99% at HDAC6 enzyme.

As for `COC[C@@H]1CCCN1C(=O)N1CCOC[C@@H]1CNC(=O)c1ccc(-c2noc(C(F)(F)F)n2)cc1` [Example 273, N-(((3S)-4-(((2S)-2-(methoxymethyl)pyrrolidin-1-yl)carbonyl)morpholin-3-yl)methyl)-4-(5-(trifluoromethyl)-1,2,4-oxadiazol-3-yl)benzamide], the inhibition at 1 µM on HDAC1 enzyme was found to be 3%; at HDAC6 enzyme it was 87%.

Take `O=C(NC[C@H]1COCCN1C(=O)N1CC[C@H](O)C1)c1ccc(-c2noc(C(F)(F)F)n2)cc1` [Example 274, N-(((3S)-4-(((3S)-3-hydroxypyrrolidin-1-yl)carbonyl)morpholin-3-yl)methyl)-4-(5-(trifluoromethyl)-1,2,4-oxadiazol-3-yl)benzamide]: the inhibition at 1 µM at HDAC1 enzyme is 3%; at HDAC6 enzyme, 94%.

On to `O=C(NC[C@H]1COCCN1C(=O)N1CC[C@@H](O)C1)c1ccc(-c2noc(C(F)(F)F)n2)cc1` [Example 275, N-(((3S)-4-(((3R)-3-hydroxypyrrolidin-1-yl)carbonyl)morpholin-3-yl)methyl)-4-(5-(trifluoromethyl)-1,2,4-oxadiazol-3-yl)benzamide], for which the inhibition at 1 µM at HDAC1 enzyme amounted to 5%; at HDAC6 enzyme, 85%.

As to `O=C(NC[C@H]1COCCN1C(=O)N1CCCC(CO)C1)c1ccc(-c2noc(C(F)(F)F)n2)cc1` (stereo partly drawn) [Example 276, N-(((3S)-4-((3-(hydroxymethyl)piperidin-1-yl)carbonyl)morpholin-3-yl)methyl)-4-(5-(trifluoromethyl)-1,2,4-oxadiazol-3-yl)benzamide], the inhibition at 1 µM at HDAC1 enzyme stood at 9%; at HDAC6 enzyme it was 89%.

As to `O=C(NC[C@H]1COCCN1C(=O)N1CCC(F)(F)CC1)c1ccc(-c2noc(C(F)(F)F)n2)cc1` [Example 277, N-(((3S)-4-((4,4-difluoropiperidin-1-yl)carbonyl)morpholin-3-yl)methyl)-4-(5-(trifluoromethyl)-1,2,4-oxadiazol-3-yl)benzamide], the inhibition at 1 µM was found to be 8% on HDAC1 enzyme and 101% on HDAC6 enzyme.

With `O=C(NC[C@H]1COCCN1C(=O)N1CCC(CO)CC1)c1ccc(-c2noc(C(F)(F)F)n2)cc1` [Example 278, N-(((3S)-4-((4-(hydroxymethyl)piperidin-1-yl)carbonyl)morpholin-3-yl)methyl)-4-(5-(trifluoromethyl)-1,2,4-oxadiazol-3-yl)benzamide], the results for the inhibition at 1 µM on HDAC1 enzyme and at HDAC6 enzyme were 6% and 90%, respectively.

As for `O=C(NC[C@H]1COCCN1C(=O)N1CCC(CCO)CC1)c1ccc(-c2noc(C(F)(F)F)n2)cc1` [Example 279, N-(((3S)-4-((4-(2-hydroxyethyl)piperidin-1-yl)carbonyl)morpholin-3-yl)methyl)-4-(5-(trifluoromethyl)-1,2,4-oxadiazol-3-yl)benzamide], the inhibition at 1 µM worked out at 10% at HDAC1 enzyme and 90% on HDAC6 enzyme.

For the molecule `O=C(NC[C@H]1COCCN1C(=O)N1CCCC2(COC2)C1)c1ccc(-c2noc(C(F)(F)F)n2)cc1` [Example 281, N-(((3S)-4-(2-oxa-6-azaspiro[3.5]non-6-ylcarbonyl)morpholin-3-yl)methyl)-4-(5-(trifluoromethyl)-1,2,4-oxadiazol-3-yl)benzamide], the inhibition at 1 µM at HDAC1 enzyme was determined as 7%; on HDAC6 enzyme it was 93%.

Consider `O=C(NC[C@H]1COCCN1C(=O)N1CCC2(CC1)COC2)c1ccc(-c2noc(C(F)(F)F)n2)cc1` [Example 282, N-(((3S)-4-(2-oxa-7-azaspiro[3.5]non-7-ylcarbonyl)morpholin-3-yl)methyl)-4-(5-(trifluoromethyl)-1,2,4-oxadiazol-3-yl)benzamide], for which the inhibition at 1 µM worked out at 5% at HDAC1 enzyme and 83% on HDAC6 enzyme.

`NC(=O)[C@@H]1CCCN1C(=O)N1CCOC[C@@H]1CNC(=O)c1ccc(-c2noc(C(F)(F)F)n2)cc1` [Example 283, 1-(((3S)-3-(((4-(5-(trifluoromethyl)-1,2,4-oxadiazol-3-yl)benzoyl)amino)methyl)morpholin-4-yl)carbonyl)-L-prolinamide]: the inhibition at 1 µM was -1% at HDAC1 enzyme and 73% on HDAC6 enzyme.

Turning to `N#C[C@H]1CCCN1C(=O)N1CCOC[C@@H]1CNC(=O)c1ccc(-c2noc(C(F)(F)F)n2)cc1` [Example 284, N-(((3S)-4-(((2R)-2-cyanopyrrolidin-1-yl)carbonyl)morpholin-3-yl)methyl)-4-(5-(trifluoromethyl)-1,2,4-oxadiazol-3-yl)benzamide], the figures for the inhibition at 1 µM on HDAC1 enzyme and on HDAC6 enzyme were 1% and 95%, respectively.

As for `N#C[C@@H]1CCCN1C(=O)N1CCOC[C@@H]1CNC(=O)c1ccc(-c2noc(C(F)(F)F)n2)cc1` [Example 285, N-(((3S)-4-(((2S)-2-cyanopyrrolidin-1-yl)carbonyl)morpholin-3-yl)methyl)-4-(5-(trifluoromethyl)-1,2,4-oxadiazol-3-yl)benzamide], the results for the inhibition at 1 µM on HDAC1 enzyme and at HDAC6 enzyme were 3% and 83%, respectively.
